Like-named read-outs stand apart in the source and are kept apart here. One block for each molecule: values may come before it.
Key:
PCSK9 = PCSK9 (Homo sapiens, UniProt Q8NBP7); test: Fluorescence polarization competition binding assay (probe: compound of Example 57); conditions: 2 μM PCSK9, 50 nM compound of Example 57 as probe, overnight incubation; read-out: FP IC
Summary of the method: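 Competition fluorescence-polarization binding: 2 μM PCSK9 with 50 nM fluorescent probe in 20 mM HEPES pH 7.5, 150 mM NaCl, 1 mM CaCl2, 0.005% P-20, incubated with test compound overnight in the dark. Anisotropy read; % inhibition relative to DMSO wells and probe-without-PCSK9 wells.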

[1] = target: T1, HEK293 cells stably overexpressing PCSK9 (Homo sapiens, UniProt Q8NBP7); test: Protein degradation assay (Western Blot/Sally Sue assay); format: cell-based; conditions: 24 hrs compound treatment, serum free DMEM
T1 construct: expressed in transfected cells
Protocol: Samples were run on the Sally Simple Western system from ProteinSimple (San Jose, Calif.) using default assay conditions. Briefly, 5×10^4 HEK293 cells stably overexpressing PCSK9 were seeded into Collagen I coated 96 well plates and allowed to recover overnight at 37° C. with 5% CO2. After 24 hrs of compound treatment in serum free DMEM cell culture medium, cells were washed with PBS and lysed in 100 ul RIPA buffer (Teknova) supplemented with protease inhibitors and subsequently mixed with fluorescent standards as per manufacturer's specifications, followed by denaturation at 95° C. for 5 minutes. Anti-PCSK9 mAb antibody (Abbomax, Cat. No. 601-650) was used for PCSK9 detection. The reported DC50 values represent the effective concentration of compound to lower PCSK9 protein levels, pro and mature, by 50%.

[2] = mature PCSK9 protein level lowered by 50%
[3] = pro PCSK9 protein level lowered by 50%
[4] = mature PCSK9 protein level lowered by 50%, read-out: PCSK9 DC50 (Mature)
[5] = pro PCSK9 protein level lowered by 50%, read-out: PCSK9 DC50 (Pro)

PCSK9, sequence (Q8NBP7 153-692): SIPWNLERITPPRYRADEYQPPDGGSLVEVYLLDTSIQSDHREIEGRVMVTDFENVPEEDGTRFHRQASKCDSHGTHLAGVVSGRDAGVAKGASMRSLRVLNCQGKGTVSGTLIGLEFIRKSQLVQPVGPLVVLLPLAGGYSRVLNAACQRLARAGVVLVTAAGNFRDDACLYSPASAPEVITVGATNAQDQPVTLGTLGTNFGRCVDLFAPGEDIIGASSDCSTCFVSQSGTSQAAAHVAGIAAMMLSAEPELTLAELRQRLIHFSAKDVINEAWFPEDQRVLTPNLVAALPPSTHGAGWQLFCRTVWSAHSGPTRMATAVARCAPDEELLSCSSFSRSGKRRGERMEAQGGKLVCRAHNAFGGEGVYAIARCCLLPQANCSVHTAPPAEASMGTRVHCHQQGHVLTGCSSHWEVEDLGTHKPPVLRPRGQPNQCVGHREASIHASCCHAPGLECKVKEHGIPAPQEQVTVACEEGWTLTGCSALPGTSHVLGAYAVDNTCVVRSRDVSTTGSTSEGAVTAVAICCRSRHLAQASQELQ

Structure (SMILES): CC(C)Cc1ccc([C@H](C)C(=O)NCCOCCOCCOCCOc2cc3c(cc2Oc2ccc(-c4ccc(C(=O)O)cc4)c(F)c2)[C@@](C)(CC(=O)Nc2nccs2)NCC3)cc1 [Example 98, 2′-fluoro-4′-(((R)-6-(((S)-14-(4-isobutylphenyl)-13-oxo-3,6,9-trioxa-12-azapentadecyl)oxy)-1-methyl-1-(2-oxo-2-(thiazol-2-ylamino)ethyl)-1,2,3,4-tetrahydroisoquinolin-7-yl)oxy)-[1,1′-biphenyl]-4-carboxylic acid]
IC50 (PCSK9): 260 nM | DC50 [1, 4]: 5070 nM | DC50 [1, 5]: 6080 nM

Structure (SMILES): CC(C)(C)OC(=O)/N=C(/NCCC[C@H](NC(=O)OC(C)(C)C)C(=O)NCCOCCOCCOCCOc1cc2c(cc1Oc1ccc(-c3ccc(C(=O)O)cc3)c(F)c1)[C@@](C)(CC(=O)Nc1nccs1)NCC2)NC(=O)OC(C)(C)C [Example 99, 4′-(((R)-6-(((S,Z)-6,11-bis((tert-butoxycarbonyl)amino)-2,2-dimethyl-4,12-dioxo-3,16,19,22-tetraoxa-5,7,13-triazatetracos-5-en-24-yl)oxy)-1-methyl-1-(2-oxo-2-(thiazol-2-ylamino)ethyl)-1,2,3,4-tetrahydroisoquinolin-7-yl)oxy)-2′-fluoro-[1,1′-biphenyl]-4-carboxylic acid]
IC50 (PCSK9): 718 nM | DC50 [1, 4]: 9000 nM | DC50 [1, 5]: 1370 nM

Structure (SMILES): CC(C)C[C@@H](NC(=O)[C@H](O)[C@@H](N)Cc1ccccc1)C(=O)NCCOCCOc1cc2c(cc1Oc1ccc(-c3ccc(C(=O)O)cc3)c(F)c1)[C@@](C)(CC(=O)Nc1nccs1)NCC2 [Example 100, 4′-(((R)-6-(2-(2-((R)-2-((2R,3S)-3-amino-2-hydroxy-4-phenylbutanamido)-4-methylpentanamido)ethoxy)ethoxy)-1-methyl-1-(2-oxo-2-(thiazol-2-ylamino)ethyl)-1,2,3,4-tetrahydroisoquinolin-7-yl)oxy)-2′-fluoro-[1,1′-biphenyl]-4-carboxylic acid]
IC50 (PCSK9): 96.4 nM | PCSK9 DC50 (Mature) μM [1, 2]: inactive | PCSK9 DC50 (Pro) μM [1, 3]: Inactive

Structure (SMILES): C[C@]1(CC(=O)Nc2nccs2)NCCc2cc(OCCOCCNC(=O)CC34CC5CC(CC(C5)C3)C4)c(Oc3ccc(-c4ccc(C(=O)O)cc4)c(F)c3)cc21 [Example 104, 4′-(((R)-6-(2-(2-(2-((3r,5r,7r)-adamantan-1-yl)acetamido)ethoxy)ethoxy)-1-methyl-1-(2-oxo-2-(thiazol-2-ylamino)ethyl)-1,2,3,4-tetrahydroisoquinolin-7-yl)oxy)-2′-fluoro-[1,1′-biphenyl]-4-carboxylic acid]
IC50 (PCSK9): 222 nM | DC50 [1, 4]: 7520 nM | DC50 [1, 5]: 1530 nM

Structure (SMILES): CC(C)(C)OC(=O)/N=C(/NCCC[C@@H](NC(=O)OC(C)(C)C)C(=O)NCCOCCOc1cc2c(cc1Oc1ccc(-c3ccc(C(=O)O)cc3)c(F)c1)[C@@](C)(CC(=O)Nc1nccs1)NCC2)NC(=O)OC(C)(C)C [Example 106, 4′-(((R)-6-(((R,Z)-6,11-bis((tert-butoxycarbonyl)amino)-2,2-dimethyl-4,12-dioxo-3,16-dioxa-5,7,13-triazaoctadec-5-en-18-yl)oxy)-1-methyl-1-(2-oxo-2-(thiazol-2-ylamino)ethyl)-1,2,3,4-tetrahydroisoquinolin-7-yl)oxy)-2′-fluoro-[1,1′-biphenyl]-4-carboxylic acid]
IC50 (PCSK9): 655 nM | DC50 [1, 4]: 3420 nM | DC50 [1, 5]: 4820 nM

Further molecules by falling IC50 (PCSK9), results first:

IC50 (PCSK9): 162 nM | PCSK9 DC50 (Mature) μM [1, 2]: inactive | PCSK9 DC50 (Pro) μM [1, 3]: Inactive
Structure (SMILES): Cc1ncsc1-c1ccc(CNC(=O)[C@@H]2C[C@@H](O)CN2C(=O)[C@@H](NC(=O)COCCOCCOCC(=O)NCCOCCOc2cc3c(cc2Oc2ccc(-c4ccc(C(=O)O)cc4)c(F)c2)[C@@](C)(CC(=O)Nc2nccs2)NCC3)C(C)(C)C)cc1 [Example 103, 2′-fluoro-4′-(((R)-6-(((S)-19-((2S,4R)-4-hydroxy-2-((4-(4-methylthiazol-5-yl)benzyl)carbamoyl)pyrrolidine-1-carbonyl)-20,20-dimethyl-7,17-dioxo-3,9,12,15-tetraoxa-6,18-diazahenicosyl)oxy)-1-methyl-1-(2-oxo-2-(thiazol-2-ylamino)ethyl)-1,2,3,4-tetrahydroisoquinolin-7-yl)oxy)-[1,1′-biphenyl]-4-carboxylic acid]

IC50 (PCSK9): 162 nM | PCSK9 DC50 (Mature) μM [1, 2]: inactive | PCSK9 DC50 (Pro) μM [1, 3]: Inactive
Structure (SMILES): Cc1ncsc1-c1ccc(CNC(=O)[C@@H]2C[C@@H](O)CN2C(=O)[C@@H](NC(=O)COCCOCC(=O)NCCOCCOc2cc3c(cc2Oc2ccc(-c4ccc(C(=O)O)cc4)c(F)c2)[C@@](C)(CC(=O)Nc2nccs2)NCC3)C(C)(C)C)cc1 [Example 102, 2′-fluoro-4′-(((R)-6-(((S)-16-((2S,4R)-4-hydroxy-2-((4-(4-methylthiazol-5-yl)benzyl)carbamoyl)pyrrolidine-1-carbonyl)-17,17-dimethyl-7,14-dioxo-3,9,12-trioxa-6,15-diazaoctadecyl)oxy)-1-methyl-1-(2-oxo-2-(thiazol-2-ylamino)ethyl)-1,2,3,4-tetrahydroisoquinolin-7-yl)oxy)-[1,1′-biphenyl]-4-carboxylic acid]

IC50 (PCSK9): 130 nM | PCSK9 DC50 (Mature) μM [1, 2]: inactive | PCSK9 DC50 (Pro) μM [1, 3]: Inactive
Structure (SMILES): CC(C)C[C@H](NC(=O)[C@@H](O)[C@H](N)Cc1ccccc1)C(=O)NCCOCCOCCOCCOc1cc2c(cc1Oc1ccc(-c3ccc(C(=O)O)cc3)c(F)c1)[C@@](C)(CC(=O)Nc1nccs1)NCC2 [Example 97, 4′-(((R)-6-(((14S,17S,18R)-18-amino-17-hydroxy-14-isobutyl-13,16-dioxo-19-phenyl-3,6,9-trioxa-12,15-diazanonadecyl)oxy)-1-methyl-1-(2-oxo-2-(thiazol-2-ylamino)ethyl)-1,2,3,4-tetrahydroisoquinolin-7-yl)oxy)-2′-fluoro-[1,1′-biphenyl]-4-carboxylic acid]

IC50 (PCSK9): 130 nM | PCSK9 DC50 (Mature) μM [1, 2]: inactive | PCSK9 DC50 (Pro) μM [1, 3]: Inactive
Structure (SMILES): COCCOc1cc2c(cc1Oc1ccc(-c3ccc(C(=O)O)cc3)c(F)c1)[C@@](C)(CC(=O)Nc1nccs1)NCC2 [Example 101, (R)-2′-fluoro-4′-((6-(2-methoxyethoxy)-1-methyl-1-(2-oxo-2-(thiazol-2-ylamino)ethyl)-1,2,3,4-tetrahydroisoquinolin-7-yl)oxy)-[1,1′-biphenyl]-4-carboxylic acid]

IC50 (PCSK9): 110 nM | DC50 [1, 4]: 1050 nM | DC50 [1, 5]: 6550 nM
Structure (SMILES): C[C@]1(CC(=O)Nc2nccs2)NCCc2cc(OCCOCCOCCOCCNC(=O)CC34CC5CC(CC(C5)C3)C4)c(Oc3ccc(-c4ccc(C(=O)O)cc4)c(F)c3)cc21 [Example 96]

IC50 (PCSK9): 107 nM | PCSK9 DC50 (Mature) μM [1, 2]: inactive | PCSK9 DC50 (Pro) μM [1, 3]: Inactive
Structure (SMILES): CC(C)C[C@H](NC(=O)[C@@H](O)[C@H](N)Cc1ccccc1)C(=O)NCCOCCOCCOc1cc2c(cc1Oc1ccc(-c3ccc(C(=O)O)cc3)c(F)c1)[C@@](C)(CC(=O)Nc1nccs1)NCC2 [Example 95, 4′-(((R)-6-(((11S,14S,15R)-15-amino-14-hydroxy-11-isobutyl-10,13-dioxo-16-phenyl-3,6-dioxa-9,12-diazahexadecyl)oxy)-1-methyl-1-(2-oxo-2-(thiazol-2-ylamino)ethyl)-1,2,3,4-tetrahydroisoquinolin-7-yl)oxy)-2′-fluoro-[1,1′-biphenyl]-4-carboxylic acid]

From patent publication US11008313B2, “Substituted 1-methyl-1,2,3,4-tetrahydroisoquinoline molecules as PCSK9 allosteric binders” (Merck Sharp & Dohme Corp., priority 2016, dated 2021)
